# Patent US20170368148A1, “USES OF A PTHrP ANALOGUE IN REDUCING FRACTURE RISK” (RADIUS HEALTH, INC., priority 2015, published 2017)
# Marks after values point to notes of the source that are not given here.
# Tests used:
# [1] = system: postmenopausal women with osteoporosis; assay: ACTIVE trial: adverse events; settings: 18 months; abaloparatide 80 μg (n = 822), teriparatide 20 μg (n = 818)
# Experimental: Safety evaluations performed in the ACTIVE trial included physical examinations, vital signs, 12-lead electrocardiograms, or ECGs, clinical laboratory tests and monitoring, and recording of adverse events. Specific safety assessments included pre-dose and post-dose (four hours) determination of serum calcium, determination of creatinine clearance, post-dose ECG assessments at selected visits, and assessments of postural hypotension (60 minutes post-dose) at selected clinic visits.
# The ACTIVE trial also evaluated several potential safety measures, including blood calcium levels, orthostatic hypotension, nausea, dizziness, and injection-site reactions.
# [2] = system: postmenopausal women with osteoporosis; assay: ACTIVE trial: BMD by DXA; type: in vivo, human; settings: for Mean percent change in BMD from baseline (ANCOVA), Femoral Neck / Mean percent change in BMD from baseline (ANCOVA), Lumbar Spine / Mean percent change in BMD from baseline (ANCOVA), Total Hip / Mean percent change in BMD from baseline (MMRM), Femoral Neck / Mean percent change in BMD from baseline (MMRM), Lumbar Spine / Mean percent change in BMD from baseline (MMRM), Total Hip: abaloparatide 80 μg or teriparatide 20 μg daily
# Experimental: BMD and bone turnover biomarkers (CTX and P1NP) were also evaluated in all patient groups to compare the effects of abaloparatide versus teriparatide.
# As set forth in the ACTIVE protocol, the primary efficacy endpoint was the number of patients treated with abaloparatide with incident vertebral fractures at the end of treatment as compared to those who received placebo. The pre-specified secondary efficacy parameters included, among other endpoints, reduction in the incidence/risk of non-vertebral fractures; changes in BMD of the spine, hip, and femoral neck from baseline to end of treatment as assessed by DXA and as compared to teriparatide; and the number of hypercalcemic events in abaloparatide treated patients when compared to teriparatide at end of treatment.
# Comparative analyses of abaloparatide versus teriparatide were completed on the following BMD secondary endpoints using a Mixed-Effect Model for Repeated Measures (MMRM) method, shown in Table 4 below:
# Comparative analyses of the PTHrP analogues abaloparatide and teriparatide were completed on the following BMD secondary endpoints using an ANCOVA approach, shown in Table 5 below: […]
smiles,measurement,setting,value
"CC[C@H](C)[C@H](NC(=O)[C@H](CCC(=O)O)NC(=O)[C@H](CO)NC(=O)[C@@H](NC(=O)[C@@H](N)CO)C(C)C)C(=O)N[C@@H](CCC(N)=O)C(=O)N[C@@H](CC(C)C)C(=O)N[C@@H](CCSC)C(=O)N[C@@H](Cc1cnc[nH]1)C(=O)N[C@@H](CC(N)=O)C(=O)N[C@@H](CC(C)C)C(=O)NCC(=O)N[C@@H](CCCCN)C(=O)N[C@@H](Cc1cnc[nH]1)C(=O)N[C@@H](CC(C)C)C(=O)N[C@@H](CC(N)=O)C(=O)N[C@@H](CO)C(=O)N[C@@H](CCSC)C(=O)N[C@@H](CCC(=O)O)C(=O)N[C@@H](CCCN=C(N)N)C(=O)N[C@H](C(=O)N[C@@H](CCC(=O)O)C(=O)N[C@@H](Cc1c[nH]c2ccccc12)C(=O)N[C@@H](CC(C)C)C(=O)N[C@@H](CCCN=C(N)N)C(=O)N[C@@H](CCCCN)C(=O)N[C@@H](CCCCN)C(=O)N[C@@H](CC(C)C)C(=O)N[C@@H](CCC(N)=O)C(=O)N[C@@H](CC(=O)O)C(=O)N[C@H](C(=O)N[C@@H](Cc1cnc[nH]1)C(=O)N[C@@H](CC(N)=O)C(=O)N[C@@H](Cc1ccccc1)C(=O)O)C(C)C)C(C)C [teriparatide, hPTH(1-34)]",AE: Arthralgia,[1],8.6%
same,AE: Back pain,[1],7.2%^‡
same,AE: Constipation,[1],4.2%
same,AE: Dizziness,[1],7.3%
same,AE: Headache,[1],6.2%
same,AE: Hypercalcemia (serum albumin-corrected calcium value ≧10.7 mg/dL),[1],6.37%^†
same,AE: Hypercalciuria,[1],12.5%^‡
same,AE: Hypertension,[1],5.0%
same,AE: Influenza,[1],4.2%
same,AE: Nasopharyngitis,[1],6.5%
same,AE: Nausea,[1],5.1%^‡
same,AE: Pain in extremity,[1],5.1%
same,AE: Palpitations,[1],1.6%^‡
same,AE: Upper respiratory tract infection,[1],8.9%
same,AE: Urinary tract infection,[1],5.0%
same,"Mean percent change in BMD from baseline (ANCOVA), Femoral Neck",[2]; 6 mo,0.80%*
same,"Mean percent change in BMD from baseline (ANCOVA), Lumbar Spine",[2]; 6 mo,4.84%*
same,"Mean percent change in BMD from baseline (ANCOVA), Total Hip",[2]; 6 mo,1.33%*
same,"Mean percent change in BMD from baseline (MMRM), Femoral Neck",[2]; 6 mo,0.87%*
same,"Mean percent change in BMD from baseline (MMRM), Lumbar Spine",[2]; 6 mo,5.25%*
same,"Mean percent change in BMD from baseline (MMRM), Total Hip",[2]; 6 mo,1.44%*
same,"Mean percent change in BMD from baseline (ANCOVA), Femoral Neck",[2]; 12 mo,1.41%*
same,"Mean percent change in BMD from baseline (ANCOVA), Lumbar Spine",[2]; 12 mo,7.40%*
same,"Mean percent change in BMD from baseline (ANCOVA), Total Hip",[2]; 12 mo,2.03%*
same,"Mean percent change in BMD from baseline (MMRM), Femoral Neck",[2]; 12 mo,1.54%*
same,"Mean percent change in BMD from baseline (MMRM), Lumbar Spine",[2]; 12 mo,8.28%*
same,"Mean percent change in BMD from baseline (MMRM), Total Hip",[2]; 12 mo,2.29%*
same,"Subjects with increased BMD of >3% at all three sites (lumbar spine, total hip, femoral neck)",[2]; 12 months,19.8%
same,"Mean percent change in BMD from baseline (ANCOVA), Femoral Neck",[2]; 18 mo,2.26%*
same,"Mean percent change in BMD from baseline (ANCOVA), Lumbar Spine",[2]; 18 mo,9.12%*
same,"Mean percent change in BMD from baseline (ANCOVA), Total Hip",[2]; 18 mo,2.81%*
same,"Mean percent change in BMD from baseline (MMRM), Femoral Neck",[2]; 18 mo,2.66%*
same,"Mean percent change in BMD from baseline (MMRM), Lumbar Spine",[2]; 18 mo,10.49%*
same,"Mean percent change in BMD from baseline (MMRM), Total Hip",[2]; 18 mo,3.26%*
same,"Subjects with increased BMD of >3% at all three sites (lumbar spine, total hip, femoral neck)",[2]; 18 months,32.0%
same,"Subjects with increased BMD of >3% at all three sites (lumbar spine, total hip, femoral neck)",[2]; month 6,6.5%
